Where a name gives a salt, the structure may show the parent alone.
Key:
[1] = test system: antigen-induced bronchoconstriction; assay: Antigen-induced bronchoconstriction model of guinea pig (Konzett-Rossler method); type: in vivo; conditions: 2 hours after administration, ovalbumin-sensitized guinea pigs
Method: (Pharmacological Activity on Antigen-Induced Bronchoconstriction Model of Guinea Pig)
Guinea pigs sensitized by ovalbumin were used and orally administered with the test compound suspended in 5% gum arabic. The activity for inhibiting antigen-induced bronchoconstriction after 2 hours after administration was measured by the Konzett-Rossler method.
Each of the sensitized guinea pigs (i.e., 5-7 pigs in one group) was anesthesized by 35 mg/kg pentobarbital, a cannula was inserted into the respiratory tract and connected to an artificial respirator, a cannula was inserted into the jugular vein, and treatment was performed by 5 mg/kg suxamethonium and 5 mg/kg mepyramine. Next, the guinea pig was inhaled a nebulized ovalbumin to cause bronchoconstriction and the activity in inhibiting bronchoconstriction was found from the ratio of the amount of overflow volume to the detector to the amount of air blown volume from the artificial respirator.
As the test compound, the present Compound (I) were used, and as the control, the above compound (A) and the thromboxane synthase inhibitor ozagrel hydrochloride (OKY-046) were used.

thromboxane synthase [2] = biological target: T1, thromboxane synthase (Rattus norvegicus, UniProt P49430); assay: Thromboxane synthase inhibitory activity ex vivo (thromboxane B2 in serum after oral administration); conditions: 1 h, SD male rats, one hour before blood sampling, read-out: TxSI ED50 (50% inhibitory amount)
T1 construct: The divided blood was allowed to naturally coagulate; from tissue; host or cells: whole blood of male SD rats, allowed to clot
T1 sequence (P49430 1-533): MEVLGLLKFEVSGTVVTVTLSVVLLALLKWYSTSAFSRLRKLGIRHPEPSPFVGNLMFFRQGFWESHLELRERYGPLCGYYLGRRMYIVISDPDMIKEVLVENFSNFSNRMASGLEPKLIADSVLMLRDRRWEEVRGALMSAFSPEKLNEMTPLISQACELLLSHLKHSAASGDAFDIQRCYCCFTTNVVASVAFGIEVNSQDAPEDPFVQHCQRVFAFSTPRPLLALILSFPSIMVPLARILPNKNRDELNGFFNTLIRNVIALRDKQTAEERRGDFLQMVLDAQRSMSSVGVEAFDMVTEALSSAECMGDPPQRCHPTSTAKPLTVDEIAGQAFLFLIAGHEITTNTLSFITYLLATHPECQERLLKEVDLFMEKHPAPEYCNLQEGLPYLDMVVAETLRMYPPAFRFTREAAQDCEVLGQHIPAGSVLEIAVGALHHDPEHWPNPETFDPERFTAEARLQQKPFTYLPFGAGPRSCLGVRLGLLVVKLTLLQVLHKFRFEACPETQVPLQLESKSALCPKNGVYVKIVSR
From the text: (§1) (Measurement of Lipoxygenase Inhibitory Activity and Thromboxane Synthase Inhibitory Activity in Ex Vivo)
(§2) For the test animals, SD male rats were used. These were made to fast from the day before the test. The test drug was suspended in 0.5% sodium carboxymethylcellulose and orally administered one hour before the blood was taken. The blood was taken from the abdominal aorta and divided for the measurement of the thromboxane synthase inhibitory activity and the 5-lipoxygenase inhibitory activity.
On the other hand, the thromboxane synthase activity was shown using as an indicator the amount of production of the thromboxane A2 stable metabolite thromboxane B2. The divided blood was allowed to naturally coagulate (25° C., 90 minutes) and then the serum was centrifuged (3000 rpm, 20 minutes, 4° C.) and the amount of thromboxane B2 in the serum was measured by the EIA method.

5-lipoxygenase = biological target: T2, 5-lipoxygenase (Rattus norvegicus, UniProt P12527); assay: Lipoxygenase inhibitory activity ex vivo (leukotriene B4 in blood after oral administration); conditions: 1 h, SD male rats, one hour before blood sampling, read-out: LTBI ED50 (50% inhibitory amount)
T2 construct: from tissue; host or cells: whole blood of male SD rats
T2 sequence (P12527 1-673): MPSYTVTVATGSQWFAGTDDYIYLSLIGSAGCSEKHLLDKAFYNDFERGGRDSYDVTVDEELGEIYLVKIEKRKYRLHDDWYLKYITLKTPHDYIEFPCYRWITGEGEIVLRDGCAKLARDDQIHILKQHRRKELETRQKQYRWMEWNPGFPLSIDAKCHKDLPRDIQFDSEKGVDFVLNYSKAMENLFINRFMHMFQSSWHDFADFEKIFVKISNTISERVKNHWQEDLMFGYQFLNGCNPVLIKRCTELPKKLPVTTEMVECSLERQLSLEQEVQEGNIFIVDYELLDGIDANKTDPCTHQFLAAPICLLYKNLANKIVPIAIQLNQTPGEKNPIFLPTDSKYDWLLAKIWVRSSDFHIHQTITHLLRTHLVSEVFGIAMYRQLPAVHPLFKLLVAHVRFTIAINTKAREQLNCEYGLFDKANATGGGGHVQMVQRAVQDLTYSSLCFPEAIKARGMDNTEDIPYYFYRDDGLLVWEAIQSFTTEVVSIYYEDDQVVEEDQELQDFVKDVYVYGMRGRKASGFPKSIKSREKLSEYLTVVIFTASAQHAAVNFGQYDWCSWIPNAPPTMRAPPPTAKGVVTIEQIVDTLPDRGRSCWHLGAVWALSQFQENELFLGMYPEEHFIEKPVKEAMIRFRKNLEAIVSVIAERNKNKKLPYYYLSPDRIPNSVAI
From the text: as §1, §2
The 5-lipoxygenase activity was shown using as an indicator the amount of production of leukotriene B4. 50 μM calcium ionophor (A-23187) was added to the divided blood to start the reaction (37° C., 30 minutes), and 1 mM Indomethacin, 1 mM Phenidone, and 0.1 mM EGTA were added to stop the reaction. The plasma was centrifuged (3000 rpm, 20 minutes, 4° C.) and the leukotriene B4 in the plasma was measured by the EIA method.

lipoxygenase = biological target: T3, lipoxygenase (Rattus norvegicus, UniProt P12527); assay: Test of lipoxygenase inhibitory activity in vitro (leukotriene B4 production in polymorphonuclear leukocytes); type: cell-based; conditions: calcium ionophore A-23187, read-out: LTBI IC50 (inhibition of the production of leukotriene B4)
T3 construct: the peritoneal cavities were lavaged and the polymorphonuclear leukocytes were recovered; endogenous in cells; host or cells: peritoneal polymorphonuclear leukocytes of male SD rats (casein-elicited)
T3 sequence (P12527 1-673): T2 sequence (P12527 1-673)
Method: (Test of Lipoxygenase Inhibitory Activity in In Vitro)
Using rat polymorphonuclear leukocytes, a test was conducted using as an indicator the amount of production of leukotriene B4. SD male rats (Japan Clea) were intraperitoneally administered with 12% sodium casein. After 16 hours, the peritoneal cavities were lavaged and the polymorphonuclear leukocytes were recovered. The polymorphonuclear leukocytes thus obtained were suspended in a phosphate buffer (137 mM NaCl, 3 mM KCl, 8 mM Na2 HPO4, 2 mM KH2 PO4) (2.5×10^5 cells/0.4 ml), then the test compound (final concentration 10^-5 M) was added and incubation performed for 10 minutes at 37° C. then a calcium solution (10 mM CaCl2, 0.86% NaCl) 0.1 ml was added and incubation performed for 5 minutes, then 1.25 μl of calcium ionophore (20 μM, A-23187) was added and the reaction started. Five minutes after the addition, 250 μl of methanol was added to stop the reaction. After the reaction was stopped, the result was centrifuged for 20 minutes (4° C., 3000 rpm), then the amount of leukotriene B4 in the supernatant was measured by the EIA method (Cayman Co. kit).
(§3) As the test compound, the compound (I) was used for the test.

thromboxane synthase [3] = biological target: T4, thromboxane synthase (Homo sapiens, UniProt P24557); assay: Test of thromboxane synthase inhibitory activity in vitro (thromboxane B2 production, platelet microsomes); type: biochemical; conditions: prostaglandin H2 substrate, read-out: TxSI IC50 (inhibition of production of thromboxane B2)
T4 construct: Human platelet microsomes were used; from tissue; host or cells: human platelet microsomes
T4 sequence (P24557 1-533): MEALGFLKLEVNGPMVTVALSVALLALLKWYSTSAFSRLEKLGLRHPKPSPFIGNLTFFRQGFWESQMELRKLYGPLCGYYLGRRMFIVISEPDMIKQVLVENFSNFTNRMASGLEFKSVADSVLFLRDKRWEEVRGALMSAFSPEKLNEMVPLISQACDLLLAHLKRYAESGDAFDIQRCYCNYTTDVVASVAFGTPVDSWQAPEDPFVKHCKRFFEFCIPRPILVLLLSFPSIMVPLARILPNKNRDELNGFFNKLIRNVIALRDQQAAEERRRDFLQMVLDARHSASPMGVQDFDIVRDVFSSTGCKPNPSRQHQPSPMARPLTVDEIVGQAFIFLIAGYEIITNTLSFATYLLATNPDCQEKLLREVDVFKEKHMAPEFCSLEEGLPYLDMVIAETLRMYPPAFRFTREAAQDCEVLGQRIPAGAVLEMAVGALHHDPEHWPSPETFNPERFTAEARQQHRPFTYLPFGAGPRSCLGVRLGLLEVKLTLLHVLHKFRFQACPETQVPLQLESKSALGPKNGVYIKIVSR
Method: (Test of Thromboxane Synthase Inhibitory Activity in In Vitro)
Human platelet microsomes were used and a test performed using as an indicator the amount of production of the thromboxane A2 stable metabolite thromboxane B2. A buffer solution (20 mM tris-HCl buffer solution, 1 mM EDTA, pH 7.5) containing human platelet microsomes (50 μg protein/ml) and the test compound (final concentration of 10^-6 M) was stirred, then incubated at 0° C. for 30 minutes, followed by adding prostaglandin H2 (100 ng/2 μl ). This was made acidic to stop the reaction, then neutralized with 1M Tris-base, then centrifuged at 3000 rpm for 20 minutes. The amount of the thromboxane B2 in the supernatant was measured by the EIA method (Cayman Co. kit).
as §3

| ED50 (thromboxane synthase [2]) | ED50 (5-lipoxygenase) | Structure (SMILES) | Suppression rate of respiratory constriction ([1]; 100 mg/kg oral) | Suppression rate of respiratory constriction ([1]; 50 mg/kg oral) | IC50 (lipoxygenase) | IC50 (thromboxane synthase [3]) |
| --- | --- | --- | --- | --- | --- | --- |
| > 30 mg/kg | 1.7 mg/kg | NC(=O)N(O)CC1=Cc2cc(Oc3ccccc3)ccc2OC1 [Compound (A)] | 26% |  |  |  |
|  |  | O=C(O)/C=C/c1ccc(Cn2ccnc2)cc1 [OKY-046, ozagrel hydrochloride] | 42% |  |  |  |
| > 10 mg/kg | 9 mg/kg | NC(=O)N(O)CC1=Cc2cc(OCc3cccnc3)ccc2OC1 [(B)] |  |  |  |  |

| Structure (SMILES) | ED50 (thromboxane synthase [2]) | ED50 (5-lipoxygenase) | Suppression rate of respiratory constriction ([1]; 100 mg/kg oral) | Suppression rate of respiratory constriction ([1]; 50 mg/kg oral) | IC50 (lipoxygenase) | IC50 (thromboxane synthase [3]) |
| --- | --- | --- | --- | --- | --- | --- |
| NC(=O)N(O)CC1=Cc2cc(Cc3cccnc3)ccc2OC1 [Compound (I), N-hydroxy-N-[6-(3-pyridylmethyl)-2H-1-benzopyran-3-ylmethyl]urea] | 1.5 mg/kg | 1.7 mg/kg |  | 75% | 200 nM | 300 nM |

From patent US6291482A, “N-hydroxyurea derivative and pharmaceutical composition containing the same” (Nikken Chemicals Co., LTD, priority 1997, dated 2001)
